Laboratory results published in paper PMC11785157 (bioRxiv, 2025).
Like-named read-outs stand apart in the source and are kept apart here.

Assays:
CHIKV [1] = test: CPE reduction assay, CHIKV in Vero cells; assay type: cell-based, chikungunya virus; conditions: read-out: EC50 CHIKV
CHIKV [2] = test: CPE reduction assay, CHIKV in skin fibroblasts; assay type: cell-based, chikungunya virus; conditions: read-out: EC50 CHIKV
in vitro [3] = conditions: African green monkey
RRV [4] = test: microbe, parasite or virus in culture; assay type: cell-based; conditions: Ross River virus, Skin fibroblast, 72 h, read-out: EC50 RRV
VEEV TC83 [5] = test: microbe, parasite or virus in culture; assay type: cell-based; conditions: Venezuelan equine encephalitis virus, Vero, 72 h, read-out: EC50 VEEV TC83
SFV [6] = test: microbe, parasite or virus in culture; assay type: cell-based; conditions: Semliki Forest virus, Skin fibroblast, 72 h, read-out: EC50 SFV
SINV HRsp [7] = test: microbe, parasite or virus in culture; assay type: cell-based; conditions: Sindbis virus, Vero, 72 h, read-out: EC50 SINV HRsp
in vitro [8] = conditions: human
SINV HRsp [9] = test: microbe, parasite or virus in culture; assay type: cell-based, Sindbis virus; conditions: for EC50: Sindbis virus, Huh-7, 72 h, read-out: EC50 SINV HRsp
in vitro [10] = conditions: human; remark: listed apart in the source
SFV [11] = test: microbe, parasite or virus in culture; assay type: cell-based; conditions: Semliki Forest virus, Vero, 72 h, read-out: EC50 SFV
SINV AR86 [12] = test: microbe, parasite or virus in culture; assay type: cell-based, Sindbis virus; conditions: for EC50: Sindbis virus, Huh-7, 72 h, read-out: EC50 SINV AR86
SINV AR86 [13] = test: microbe, parasite or virus in culture; assay type: cell-based; conditions: Sindbis virus, Vero, 72 h, read-out: EC50 SINV AR86
VEEV TC83 [14] = test: microbe, parasite or virus in culture; assay type: cell-based, Venezuelan Equine Encephalitis virus; conditions: for EC50: Venezuelan equine encephalitis virus, Huh-7, 72 h, read-out: EC50 VEEV TC83
alphaviruses [15] = test: organism not typed; assay type: cell-based
RRV [16] = test: microbe, parasite or virus in culture; assay type: cell-based; conditions: Ross River virus, Vero, 72 h, read-out: EC50 RRV
[17] = system: alphaviruses (CHIKV, SFV, SINV-HRsp, SINV-AR86, VEEV TC83 and RRV); test: microbe, parasite or virus in culture; assay type: cell-based
[18] = mouse, in vivo
CHIKV [19] = test: Viral RNA levels in CHIKV-infected AG129 mice; assay type: in vivo; conditions: day 3 pi
alphaviruses [20] = assay type: cell-based
CHIKV [21] = test: Infectious virus titres in CHIKV-infected AG129 mice; assay type: in vivo
CHIKV [22] = test: CHIKV-induced foot swelling in AG129 mice; assay type: in vivo
CHIKV [23] = conditions: SOF 40-80 mg/kg/day; cited from earlier work
CHIKV [24] = conditions: SOF 20 mg/kg/day; cited from earlier work
[25] = Chikungunya virus, Skin fibroblast, 72 h
[26] = MPV 10, 50, 100 mg/kg, day 3 pi
[27] = combination study, day 2 pi, MPV 10 mg/kg, SOF 80 mg/kg or both (80 + 10 mg/kg), oral

| SMILES | CC50 (in vitro [3]) [µM] | EC50 (RRV [4]) [µM] | EC50 (VEEV TC83 [5]) [µM] | EC50 (CHIKV [1]; Chikungunya virus, Vero, 72 h) [µM] | EC50 (SFV [6]) [µM] | EC50 (SINV HRsp [7]) [µM] | CC50 (in vitro [8]) [µM] | EC50 (SINV HRsp [9]) [µM] | CC50 (in vitro [10]) [µM] | EC50 (SFV [11]) [µM] | antiviral activity against SINV AR86 (in words) (SINV AR86 [12]) | EC50 (SINV AR86 [12]) [µM] | antiviral activity against VEEV TC83 (in words) (VEEV TC83 [14]) | EC50 (VEEV TC83 [14]) [µM] | EC50 (CHIKV [2]; [25]) [µM] | EC50 (RRV [16]) [µM] | reduction of foot swelling compared to vehicle (CHIKV [22]; [27]) [%] | further results |
| --- | --- | --- | --- | --- | --- | --- | --- | --- | --- | --- | --- | --- | --- | --- | --- | --- | --- | --- |
| O=c1nc(NO)ccn1[C@@H]1O[C@H](CO)[C@@H](O)[C@H]1O [EIDD-1931] |  |  |  |  |  |  |  |  |  |  |  |  |  |  |  |  |  | CC50 (Huh7 cells): 22 ± 11 µM; EC50 (CHIKV [1]; Vero cells, 72 h pi, MTS): 0.7 µM; CC50 (Human skin fibroblasts): 140 ± 19 µM; CC50 (Vero cells): > 200 µM; EC50 (CHIKV [2]; Skin fibroblasts, 72 h pi, MTS): 0.9 µM |
| NC(=O)c1nc(F)c[nH]c1=O [FAV, favipiravir] | 374 ± 17 | > 200 | 13 | 35 ± 14 | 382 | 52 ± 18 | > 500 | 22 ± 7 | > 500 | 33 ± 6 | active | 29 ± 18 | active | 112 | 143 ± 5 | 15 ± 12 |  | antiviral activity against SINV HRsp (in words) (SINV HRsp [9]): active; EC50 (SINV AR86 [13]): 17 ± 2 µM; antiviral efficacy (in words) (alphaviruses [15]): only effective against CHIKV; EC50 ([17]; Chikungunya virus, Vero, read-out: EC50 values against all alphaviruses tested): 13 to 52 µM |
| CC(C)C(=O)OC[C@H]1O[C@@H](n2ccc(NO)nc2=O)[C@H](O)[C@@H]1O [MPV, Molnupiravir] |  |  |  |  |  |  |  |  |  |  |  |  |  |  |  |  | 19 | tolerability [18]: well-tolerated; viral RNA in contralateral ankle (in words) (CHIKV [19]; MPV 10, 50, 100 mg/kg): dose-dependent decreases; viral RNA in serum (in words) (CHIKV [19]; MPV 10, 50, 100 mg/kg): significantly reduced; viral RNA in left ankle (in words) (CHIKV [19]; highest dose of MPV): significant decreases; EC50 values, pan-alphavirus (in words) (alphaviruses [20]): sub to low single-digit micromolar range; infectious virus in contralateral ankle (in words) (CHIKV [21]; [26]): dose-dependent decreases; infectious virus in serum (in words) (CHIKV [21]; [26]): dose-dependent decreases; infectious CHIKV in serum (in words) (CHIKV [21]; MPV all doses (10, 50, 100 mg/kg), day 2 pi): suppressed infectious CHIKV; reduction of infectious virus titres in serum (CHIKV [21]; combination study, day 3 pi, MPV 10 mg/kg, SOF 80 mg/kg or both): 1 log10 TCID50/mL; infectious virus in left ankle (in words) (CHIKV [21]; highest dose of MPV, day 3 pi): significant decreases; effect on foot swelling (in words) (CHIKV [22]; MPV 10 mg/kg oral twice daily, dose-response study): did not significantly improve swelling; reduction of foot swelling compared to vehicle (CHIKV [22]; MPV 50 mg/kg oral twice daily, day 2 pi): 22%; reduction of foot swelling compared to vehicle (CHIKV [22]; MPV 50 mg/kg oral twice daily, day 3 pi): 55%; reduction of foot swelling compared to vehicle (CHIKV [22]; MPV 100 mg/kg oral twice daily, day 2 pi): 20%; reduction of foot swelling compared to vehicle (CHIKV [22]; MPV 100 mg/kg oral twice daily, day 3 pi): 62%; EC50 values against all alphaviruses tested (in words) (alphaviruses [15]): sub to low single-digit micromolar range |
| CC(C)OC(=O)[C@H](C)N[P@](=O)(OC[C@H]1O[C@@H](n2ccc(=O)[nH]c2=O)[C@](C)(F)[C@@H]1O)Oc1ccccc1 [SOF, Sofosbuvir] | 350 ± 14 | 20 ± 7 | > 100 | > 100 | 17 ± 3 | > 100 | 271 ± 95 | 44 ± 3 | 280 ± 13 | > 100 | did not inhibit | > 50 | did not inhibit | > 50 | 15 ± 3 | > 100 | 25 | survival (CHIKV [23]): improved survival; effect on foot swelling (in words) (CHIKV [22]; SOF 40 and 80 mg/kg oral twice daily, over the course of the infection): did not significantly improve; reduction of foot swelling compared to vehicle (CHIKV [22]; combination study, day 3 pi, MPV 10 mg/kg, SOF 80 mg/kg or both (80 + 10 mg/kg), oral): no reduction; foot swelling (CHIKV [24]): slightly reduced; reduction of viral RNA in the joint (CHIKV [24]): < 1 log gc/ml; EC50 (alphaviruses [15]; Skin fibroblast, read-out: EC50 values against all alphaviruses tested): 12 to 20 µM; antiviral activity [17]: no antiviral activity |
